From ChEMBL document CHEMBL5634096, “Design, synthesis and bioevaluation of PI3Kα-selective inhibitors as potential colorectal cancer drugs” (Eur J Med Chem, 2023)
Active and inactive are the calls of the source. The rule behind the calls is not given here.

Experiments:
[1] = biological target: Phosphatidylinositol 4,5-bisphosphate 3-kinase catalytic subunit alpha isoform (Homo sapiens, UniProt P42336); experiment: Inhibition of PI3Kalpha (unknown origin) by ADP-Glo luminescent kinase assay
[2] = biological target: Phosphatidylinositol 4,5-bisphosphate 3-kinase catalytic subunit beta isoform (Homo sapiens, UniProt P42338); experiment: Inhibition of PI3Kbeta (unknown origin) by ADP-Glo luminescent kinase assay
[3] = biological target: T1, Phosphatidylinositol 4,5-bisphosphate 3-kinase catalytic subunit delta isoform (Homo sapiens, UniProt O00329); experiment: Inhibition of PI3Kdelta (unknown origin) by ADP-Glo luminescent kinase assay
T1 sequence (O00329 whole entry): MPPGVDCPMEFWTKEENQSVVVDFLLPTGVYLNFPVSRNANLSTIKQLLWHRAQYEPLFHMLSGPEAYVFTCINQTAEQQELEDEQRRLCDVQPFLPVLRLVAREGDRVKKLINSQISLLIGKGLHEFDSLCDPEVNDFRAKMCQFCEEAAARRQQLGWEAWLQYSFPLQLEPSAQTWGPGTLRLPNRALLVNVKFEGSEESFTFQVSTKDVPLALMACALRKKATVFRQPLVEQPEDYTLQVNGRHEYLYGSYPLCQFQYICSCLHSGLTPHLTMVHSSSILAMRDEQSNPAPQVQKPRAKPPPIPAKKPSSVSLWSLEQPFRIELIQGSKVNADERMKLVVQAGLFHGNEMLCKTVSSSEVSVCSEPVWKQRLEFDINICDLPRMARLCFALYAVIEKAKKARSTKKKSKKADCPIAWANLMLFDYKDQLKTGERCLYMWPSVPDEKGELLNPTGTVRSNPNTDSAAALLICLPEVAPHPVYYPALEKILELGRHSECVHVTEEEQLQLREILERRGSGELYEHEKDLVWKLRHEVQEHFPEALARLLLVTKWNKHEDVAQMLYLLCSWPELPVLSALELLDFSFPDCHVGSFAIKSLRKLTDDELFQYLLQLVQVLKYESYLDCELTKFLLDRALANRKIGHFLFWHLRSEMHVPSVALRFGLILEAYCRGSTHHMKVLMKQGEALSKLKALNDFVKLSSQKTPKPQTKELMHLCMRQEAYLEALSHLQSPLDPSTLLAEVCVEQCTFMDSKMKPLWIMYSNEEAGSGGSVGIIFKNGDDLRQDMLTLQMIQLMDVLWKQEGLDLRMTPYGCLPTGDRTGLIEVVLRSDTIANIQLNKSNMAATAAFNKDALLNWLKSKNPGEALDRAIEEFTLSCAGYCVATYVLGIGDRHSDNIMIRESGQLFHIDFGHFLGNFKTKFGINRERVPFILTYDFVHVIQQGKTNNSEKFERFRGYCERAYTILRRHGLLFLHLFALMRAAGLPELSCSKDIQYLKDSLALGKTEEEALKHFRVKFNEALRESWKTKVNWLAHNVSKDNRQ

[4] = biological target: Phosphatidylinositol 4,5-bisphosphate 3-kinase catalytic subunit gamma isoform (Homo sapiens, UniProt P48736); experiment: Inhibition of PI3Kgamma (unknown origin) by ADP-Glo luminescent kinase assay
MCF7 [5] = experiment: Antiproliferative activity against human MCF7 cells assessed as reduction in cell viability incubated for 24 to 48 hrs by CCK-8 assay; format: functional, cell-based
HCT-116 [6] = experiment: Antiproliferative activity against human HCT-116 cells assessed as reduction in cell viability incubated for 24 to 48 hrs by CCK-8 assay; format: functional, cell-based
MDA-MB-231 = experiment: Antiproliferative activity against human MDA-MB-231 cells assessed as reduction in cell viability incubated for 24 to 48 hrs by CCK-8 assay; format: functional, cell-based
SW-620 = experiment: Antiproliferative activity against human SW-620 cells assessed as reduction in cell viability incubated for 24 to 48 hrs by CCK-8 assay; format: functional, cell-based
MCF7 [7] = experiment: Antiproliferative activity against human MCF7 cells expressing PIK3CA with E545K mutation assessed as reduction in cell viability incubated for 24 to 48 hrs by CCK-8 assay; format: functional, cell-based
HCT-116 [8] = experiment: Antiproliferative activity against human HCT-116 cells expressing PIK3CA with H1047R mutation assessed as reduction in cell viability incubated for 24 to 48 hrs by CCK-8 assay; format: functional, cell-based
[9] = Cytotoxicity against human MCF-10A cells assessed as reduction in cell viability incubated for 24 to 48 hrs by CCK-8 assay; format: toxicity, cell-based
[10] = Cytotoxicity against human NCM460 cells assessed as reduction in cell viability incubated for 24 to 48 hrs by CCK-8 assay; format: toxicity, cell-based
[11] = Metabolic stability in Sprague-Dawley rat liver microsomes assessed as compound remaining at 5 ug/ml incubated for 1 hr in presence of NADPH by LC-MS/MS analysis; format: ADME, Microsome; settings: at 5 µg/mL, read-out: Stability
[12] = Metabolic stability in Sprague-Dawley rat liver microsomes assessed as half life at 5 ug/ml incubated for 1 hr in presence of NADPH by LC-MS/MS analysis; format: ADME, Microsome; settings: dose 5 µg/ml
[13] = Metabolic stability in Sprague-Dawley rat liver microsomes assessed as intrinsic clearance at 5 ug/ml incubated for 1 hr in presence of NADPH by LC-MS/MS analysis; format: ADME, Microsome; settings: dose 5 µg/ml
Cytochrome P450 1A2 = Cytochrome P450 1A2 (Homo sapiens, UniProt P05177); experiment: Inhibition of CYP1A2 in human liver microsomes using phenacetin as substrate pre-incubated for 30 mins followed by substrate addition and measured after 15 mins in presence of NADPH by LC/MS analysis; format: ADME, Microsome
Cytochrome P450 2C9 = Cytochrome P450 2C9 (Homo sapiens, UniProt P11712); experiment: Inhibition of CYP2C9 in human liver microsomes using tolbutamide as substrate pre-incubated for 30 mins followed by substrate addition and measured after 15 mins in presence of NADPH by LC/MS analysis; format: ADME, Microsome
Cytochrome P450 2C19 = Cytochrome P450 2C19 (Homo sapiens, UniProt P33261); experiment: Inhibition of CYP2C19 in human liver microsomes using omeprazole as substrate pre-incubated for 30 mins followed by substrate addition and measured after 15 mins in presence of NADPH by LC/MS analysis; format: ADME, Microsome
Cytochrome P450 2D6 = Cytochrome P450 2D6 (Homo sapiens, UniProt P10635); experiment: Inhibition of CYP2D6 in human liver microsomes using dextromethorphan as substrate pre-incubated for 30 mins followed by substrate addition and measured after 15 mins in presence of NADPH by LC/MS analysis; format: ADME, Microsome
Cytochrome P450 3A4 = Cytochrome P450 3A4 (Homo sapiens, UniProt P08684); experiment: Inhibition of CYP3A4 in human liver microsomes using midazolam as substrate pre-incubated for 30 mins followed by substrate addition and measured after 15 mins in presence of NADPH by LC/MS analysis; format: ADME, Microsome
[14] = AUC (0 to t) in Sprague-Dawley rat at 5 mg/kg, iv measured upto 24 hrs by LC-MS analysis; format: ADME, organism-based; settings: in vivo
[15] = AUC (0 to infinity) in Sprague-Dawley rat at 5 mg/kg, iv measured upto 24 hrs by LC-MS analysis; format: ADME, organism-based; settings: in vivo
[16] = MRT (0 to t) in Sprague-Dawley rat at 5 mg/kg, iv measured upto 24 hrs by LC-MS analysis; format: ADME, organism-based; settings: in vivo
[17] = MRT (0 to infinity) in Sprague-Dawley rat at 5 mg/kg, iv measured upto 24 hrs by LC-MS analysis; format: ADME, organism-based; settings: in vivo
[18] = Half life in Sprague-Dawley rat at 5 mg/kg, iv measured upto 24 hrs by LC-MS analysis; format: ADME, organism-based; settings: in vivo
[19] = Clearance in Sprague-Dawley rat at 5 mg/kg, iv measured upto 24 hrs by LC-MS analysis; format: ADME, organism-based; settings: in vivo
[20] = Volume of distribution in Sprague-Dawley rat at 5 mg/kg, iv measured upto 24 hrs by LC-MS analysis; format: ADME, organism-based; settings: in vivo
[21] = Cmax in Sprague-Dawley rat at 5 mg/kg, iv measured upto 24 hrs by LC-MS analysis; format: ADME, organism-based; settings: in vivo
HCT-116 [22] = experiment: Antiproliferative activity against human HCT-116 cells assessed as reduction in cell viability incubated for 48 hrs by CCK-8 assay; format: functional, cell-based; settings: dose 20-80 µM
HCT-116 [23] = experiment: Antiproliferative activity against human HCT-116 cells assessed as inhibition of colony formation at 6 uM incubated for 48 hrs by crystal violet staining based assay; format: functional, cell-based
HCT-116 [24] = experiment: Induction of apoptosis in human HCT-116 cells assessed as increased total apoptotic cells at 6 uM incubated for 48 hrs by Annexin V-FITC and propidium iodide staining based flow cytometry analysis (reference value: 4.22 %); format: functional
[25] = Metabolic stability in Sprague-Dawley rat plasma assessed as compound remaining measured upto 3 hrs by LC-MS/MS analysis; format: ADME, cell-free
[26] = Metabolic stability in artificial gastrointestinal fluid assessed as compound remaining measured upto 8 hrs by LC-MS/MS analysis; format: ADME

Sequence of Cytochrome P450 2D6 (P10635 whole entry): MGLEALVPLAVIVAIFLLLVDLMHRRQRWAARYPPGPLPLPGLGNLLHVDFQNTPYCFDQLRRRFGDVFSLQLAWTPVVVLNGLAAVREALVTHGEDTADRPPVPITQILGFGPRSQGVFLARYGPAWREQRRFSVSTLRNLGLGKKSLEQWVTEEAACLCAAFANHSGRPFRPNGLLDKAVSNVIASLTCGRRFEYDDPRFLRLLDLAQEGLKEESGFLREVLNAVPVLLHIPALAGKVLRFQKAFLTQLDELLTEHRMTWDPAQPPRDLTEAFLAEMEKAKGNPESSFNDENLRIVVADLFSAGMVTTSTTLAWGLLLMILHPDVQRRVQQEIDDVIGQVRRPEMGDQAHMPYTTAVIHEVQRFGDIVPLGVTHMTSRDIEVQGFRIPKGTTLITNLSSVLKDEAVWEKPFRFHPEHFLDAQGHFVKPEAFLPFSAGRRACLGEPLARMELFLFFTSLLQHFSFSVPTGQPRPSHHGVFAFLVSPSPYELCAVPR
Sequence of Cytochrome P450 2C9 (P11712 whole entry): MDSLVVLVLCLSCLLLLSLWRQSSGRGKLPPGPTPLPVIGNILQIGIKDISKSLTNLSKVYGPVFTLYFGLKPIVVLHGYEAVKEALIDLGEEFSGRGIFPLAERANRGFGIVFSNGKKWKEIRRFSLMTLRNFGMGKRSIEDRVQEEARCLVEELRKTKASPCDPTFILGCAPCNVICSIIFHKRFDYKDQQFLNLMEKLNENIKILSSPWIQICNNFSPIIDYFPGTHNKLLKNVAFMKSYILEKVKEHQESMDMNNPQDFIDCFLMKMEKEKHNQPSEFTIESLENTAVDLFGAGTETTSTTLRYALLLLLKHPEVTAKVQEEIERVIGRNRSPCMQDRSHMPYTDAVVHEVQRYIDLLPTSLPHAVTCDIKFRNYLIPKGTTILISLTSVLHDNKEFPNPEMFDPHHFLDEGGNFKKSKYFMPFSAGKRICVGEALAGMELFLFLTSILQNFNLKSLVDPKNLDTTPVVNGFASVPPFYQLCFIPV
Sequence of Cytochrome P450 3A4 (P08684 whole entry): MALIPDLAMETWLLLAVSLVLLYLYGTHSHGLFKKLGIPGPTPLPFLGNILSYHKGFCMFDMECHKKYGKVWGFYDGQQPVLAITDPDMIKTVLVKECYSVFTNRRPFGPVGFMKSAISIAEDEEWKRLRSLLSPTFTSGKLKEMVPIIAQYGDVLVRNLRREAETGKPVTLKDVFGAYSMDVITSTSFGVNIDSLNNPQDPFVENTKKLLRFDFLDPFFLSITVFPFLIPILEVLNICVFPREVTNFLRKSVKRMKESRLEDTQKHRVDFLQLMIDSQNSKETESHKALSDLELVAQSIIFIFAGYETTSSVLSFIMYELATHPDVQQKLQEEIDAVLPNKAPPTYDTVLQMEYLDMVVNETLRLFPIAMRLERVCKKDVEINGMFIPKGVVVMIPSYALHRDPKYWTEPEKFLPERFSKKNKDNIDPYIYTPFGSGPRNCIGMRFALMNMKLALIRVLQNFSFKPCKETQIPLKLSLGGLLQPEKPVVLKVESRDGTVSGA
Sequence of Cytochrome P450 1A2 (P05177 whole entry): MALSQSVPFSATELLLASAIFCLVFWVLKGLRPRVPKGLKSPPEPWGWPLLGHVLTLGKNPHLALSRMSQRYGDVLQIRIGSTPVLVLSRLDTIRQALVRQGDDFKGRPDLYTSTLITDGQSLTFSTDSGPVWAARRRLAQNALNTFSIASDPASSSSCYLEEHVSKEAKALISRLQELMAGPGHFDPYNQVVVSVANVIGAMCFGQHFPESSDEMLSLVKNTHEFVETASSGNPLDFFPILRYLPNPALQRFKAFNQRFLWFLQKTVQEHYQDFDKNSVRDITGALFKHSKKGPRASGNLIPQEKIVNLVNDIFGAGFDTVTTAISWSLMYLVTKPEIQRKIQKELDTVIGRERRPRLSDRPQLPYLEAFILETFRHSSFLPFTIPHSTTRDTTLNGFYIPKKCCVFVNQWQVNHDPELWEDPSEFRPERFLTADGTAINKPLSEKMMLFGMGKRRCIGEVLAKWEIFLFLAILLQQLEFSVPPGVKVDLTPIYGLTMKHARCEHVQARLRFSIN
Sequence of Phosphatidylinositol 4,5-bisphosphate 3-kinase catalytic subunit gamma isoform (P48736 whole entry, canonical isoform): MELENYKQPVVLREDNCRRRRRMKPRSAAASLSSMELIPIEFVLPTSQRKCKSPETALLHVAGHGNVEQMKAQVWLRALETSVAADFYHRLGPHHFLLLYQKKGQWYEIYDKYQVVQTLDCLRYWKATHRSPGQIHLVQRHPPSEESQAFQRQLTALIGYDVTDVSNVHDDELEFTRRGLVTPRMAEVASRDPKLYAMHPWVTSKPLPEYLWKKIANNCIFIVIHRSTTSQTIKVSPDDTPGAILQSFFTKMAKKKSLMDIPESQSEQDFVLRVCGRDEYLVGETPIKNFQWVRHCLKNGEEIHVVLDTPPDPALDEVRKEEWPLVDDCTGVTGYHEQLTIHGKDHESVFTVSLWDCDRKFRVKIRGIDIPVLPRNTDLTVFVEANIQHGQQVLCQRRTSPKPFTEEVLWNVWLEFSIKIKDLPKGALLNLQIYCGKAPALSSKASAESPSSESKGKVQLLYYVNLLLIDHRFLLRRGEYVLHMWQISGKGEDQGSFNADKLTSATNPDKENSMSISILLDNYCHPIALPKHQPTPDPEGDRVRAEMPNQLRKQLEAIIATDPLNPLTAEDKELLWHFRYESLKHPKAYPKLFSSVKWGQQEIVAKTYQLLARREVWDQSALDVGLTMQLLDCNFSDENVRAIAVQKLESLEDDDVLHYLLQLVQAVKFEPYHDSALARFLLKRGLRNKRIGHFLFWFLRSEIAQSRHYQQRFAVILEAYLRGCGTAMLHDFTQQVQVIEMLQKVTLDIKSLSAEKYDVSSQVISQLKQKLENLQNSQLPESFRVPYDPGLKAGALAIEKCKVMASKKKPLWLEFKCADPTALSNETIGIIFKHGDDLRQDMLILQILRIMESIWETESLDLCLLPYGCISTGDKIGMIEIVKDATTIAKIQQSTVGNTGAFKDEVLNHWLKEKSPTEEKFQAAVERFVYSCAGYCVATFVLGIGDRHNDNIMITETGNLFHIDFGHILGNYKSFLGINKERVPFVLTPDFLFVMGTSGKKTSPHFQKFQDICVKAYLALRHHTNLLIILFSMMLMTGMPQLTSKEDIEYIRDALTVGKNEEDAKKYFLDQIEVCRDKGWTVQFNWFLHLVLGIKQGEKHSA
Sequence of Phosphatidylinositol 4,5-bisphosphate 3-kinase catalytic subunit alpha isoform (P42336 whole entry, canonical isoform): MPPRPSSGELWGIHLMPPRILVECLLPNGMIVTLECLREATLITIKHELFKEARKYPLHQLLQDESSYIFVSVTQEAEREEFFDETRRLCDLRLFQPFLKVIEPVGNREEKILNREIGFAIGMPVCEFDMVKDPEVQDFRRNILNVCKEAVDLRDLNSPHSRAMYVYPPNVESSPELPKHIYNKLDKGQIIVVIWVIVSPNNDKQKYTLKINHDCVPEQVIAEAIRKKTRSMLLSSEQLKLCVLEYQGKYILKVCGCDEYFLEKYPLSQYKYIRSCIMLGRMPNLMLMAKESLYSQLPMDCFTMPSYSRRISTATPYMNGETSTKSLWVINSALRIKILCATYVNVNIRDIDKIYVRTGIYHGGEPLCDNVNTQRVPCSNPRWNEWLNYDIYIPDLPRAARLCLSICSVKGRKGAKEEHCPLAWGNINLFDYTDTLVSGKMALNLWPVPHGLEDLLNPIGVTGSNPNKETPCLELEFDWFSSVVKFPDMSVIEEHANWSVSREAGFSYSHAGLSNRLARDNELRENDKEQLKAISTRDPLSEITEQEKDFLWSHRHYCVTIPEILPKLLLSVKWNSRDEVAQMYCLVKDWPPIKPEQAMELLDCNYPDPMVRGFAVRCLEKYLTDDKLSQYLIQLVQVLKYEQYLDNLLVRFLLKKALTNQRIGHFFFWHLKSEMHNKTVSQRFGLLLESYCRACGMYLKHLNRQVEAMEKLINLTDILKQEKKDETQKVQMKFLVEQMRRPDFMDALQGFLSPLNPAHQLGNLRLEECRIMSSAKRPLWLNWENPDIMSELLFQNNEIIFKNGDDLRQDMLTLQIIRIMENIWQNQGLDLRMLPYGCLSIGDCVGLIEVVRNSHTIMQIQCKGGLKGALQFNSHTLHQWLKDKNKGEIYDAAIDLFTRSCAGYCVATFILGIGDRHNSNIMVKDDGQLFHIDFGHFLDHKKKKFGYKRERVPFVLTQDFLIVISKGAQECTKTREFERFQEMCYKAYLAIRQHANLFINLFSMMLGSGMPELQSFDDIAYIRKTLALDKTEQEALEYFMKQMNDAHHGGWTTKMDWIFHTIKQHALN
Sequence of Cytochrome P450 2C19 (P33261 whole entry): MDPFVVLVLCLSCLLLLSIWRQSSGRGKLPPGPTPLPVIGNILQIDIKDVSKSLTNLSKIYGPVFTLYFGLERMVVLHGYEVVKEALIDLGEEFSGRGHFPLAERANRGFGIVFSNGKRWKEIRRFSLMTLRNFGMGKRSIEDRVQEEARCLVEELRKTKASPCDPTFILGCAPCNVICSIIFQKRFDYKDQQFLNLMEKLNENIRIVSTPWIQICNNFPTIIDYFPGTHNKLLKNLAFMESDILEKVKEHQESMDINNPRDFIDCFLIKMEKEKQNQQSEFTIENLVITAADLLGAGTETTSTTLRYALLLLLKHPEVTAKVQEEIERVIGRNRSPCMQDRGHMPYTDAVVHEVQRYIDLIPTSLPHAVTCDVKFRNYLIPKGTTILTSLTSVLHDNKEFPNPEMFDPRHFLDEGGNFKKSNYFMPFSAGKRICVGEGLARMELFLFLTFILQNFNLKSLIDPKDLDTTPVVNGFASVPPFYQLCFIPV

IC50 [1]: 0.011 µM | IC50 [2]: 0.594 µM | IC50 [3]: 0.328 µM | IC50 [4]: 0.402 µM | IC50 (MCF7 [5]): 0.64 µM | IC50 (HCT-116 [6]): 5.8 µM | IC50 (MDA-MB-231): 15.8 µM | IC50 (SW-620): 9.99 µM | IC50 (MCF7 [7]): 3.76 µM | IC50 (HCT-116 [8]): 14.1 µM | remaining at 1 h, 5 ug/ml [11]: 86.2% | half-life at 5 ug/ml [12]: 4.44 h | CLH [13]: 5 µL/min/mg | IC50 (Cytochrome P450 1A2): > 10 µM | IC50 (Cytochrome P450 2C9): > 10 µM | IC50 (Cytochrome P450 2C19): > 10 µM | IC50 (Cytochrome P450 2D6): > 10 µM | IC50 (Cytochrome P450 3A4): > 10 µM | AUC(0-t) at 24 h [14]: 7120 ng·h/mL | AUC(0-inf) [15]: 7520 ng·h/mL | MRT last at 24 h [16]: 6.5 h | MRT inf [17]: 7.9 h | half-life [18]: 5.9 h | clearance [19]: 11.7 mL/min/kg | Vd [20]: 5.6 L/kg | Cmax [21]: 1680 ng/mL | Stability [25]: Stable | Stability [26]: Stable
SMILES: Nc1nc2cc(-c3ccc4ncc(C(=O)N5CCOCC5)n4c3)ccc2o1 [SERABELISIB]
IC50 [9]: 34.1 µM | IC50 [10]: 29 µM | Activity (HCT-116 [22]): Dose-Dependent Effect | Activity (HCT-116 [23]): Active | Activity (HCT-116 [24]): 11.68%
